This is an account of results in patent publication US20240166662A1, “THIOPHENE BASED COMPOUNDS AND USE THEREOF AS BCKDK INHIBITORS” (Ramino-Bio Ltd., priority 2021, published 2024).

A word on the pIC50: it is −log10 of the IC50, conventionally taken in molar units. The fraction unbound is the share of the substance not bound to proteins or other matrix. One may read the AUC as concentration integrated over time.

Structures are written as SMILES. pIC50: −log10 of the molar value. Where two headings read alike, the source gives them in different places.

The subject of data set [1] is BDK (MBP-BDK). Put plainly: Cell-free BDK activity assay (ADP-Glo kinase kit). As to conditions: in-vitro. Format: biochemical. From the text:
(§1) Cell-free BDK activity assay was developed based on protocols and published work of David Chuang as described in Tso et al. 2014. Briefly, The main components of the enzymatic cell-free activity assay are the kinase-BDK (MBP-BDK), its 14 kDa synthetic substrate Lip-LBD-PhP, and ATP. The detection is being done with Promega ADP-Glo™ kinase kit. The assay is robust generating an assay window (AW)>5 and Z′−factor>0.5. The concentrations of all assay components were reduced relative to published concentrations and the assay was validated using known BDK inhibitors.
(§2) Constructs: a synthetic 14 KDa peptide that serves as a substrate for BDK instead of the multimeric BCKDH. This peptide, named LBD-PhP, is composed of the lipoyl binding domain (LBD) of the BCKDH E2 subunit connected by a linker to the phosphorylation peptide (PhP) of the E1α subunit. LBD-PhP is lipoylated in vitro using the E. Coli enzyme—lipoylate ligase (Lp1A) to achieve enhancement of BDK substrate phosphorylation. Additionally, a chimeric BDK in which the kinase is fused in its N-terminus to MBP, generating-MBP-BDK to increase BDK solubility and stability.
(§3) Reaction: The ADP detection is composed of the following steps:
(§4) Kinase reaction is performed by adding BDK, lip-LBD-PhP and ATP and incubating for 60 min at room temperature. This is done in solid white 384-well plates and the total volume of the reaction is 10 μl.
(§5) ADP-Glo reagent is added to terminate the kinase reaction and to deplete the remaining ATP and incubated for 40 min.
(§6) Kinase detection reagent is added for ADP detection: The ADP is converted to ATP and using a series of enzymatic reactions the newly synthesized ATP generates a luminescent signal which is proportional to the amount of the initial ADP formed by the kinase reaction. Luminescence is measured using a plate reader (Tecan Spark 20M plate reader).
(§7) In a typical experiment the AW and Z-factor are calculated from 12 repeats of positive control (100% activity) and 12 repeats of negative control (0% activity).
(§8) Positive control (100% activity)=maximal kinase activity with ATP and substrate. Negative control (0% activity)=minimal kinase activity with ATP alone (no substrate). AW: Average100%/Average0%. Z-factor: 1−((3*STDEV100%+3*STDEV0%)/(Average100%−Average0%)).
(§9) Each 384-well plate-based screening experiment includes serial dilutions of 14 different compounds and the following controls: 1. A known BDK tool compound BT2 (for allosteric inhibitors)/Radicicol (for ATP-pocket inhibitors) 2. Twelve repeats of positive and negative controls. Analyzed compounds and tool compounds are serially diluted, 8-point half log from 50 μM to 16 nM in triplicates. The positive and negative controls are used to calculate AW and Z-factor and to enable data normalization.

The next data set deals with BCKDH. The following applies: WT and iMSUD patient derived lymphoblasts; cited from earlier work.
Data set [2] deals with T1, BDK (MBP-BDK) (UniProt Q00972).
T1 construct: IC50 BDK; other: cell-free BDK activity assay; other: in-vitro; assay not specified
The data set can be described thus: Cell-free BDK activity assay (ADP-Glo kinase kit). The class given is biochemical. The following applies: cell-free BDK activity assay.
Description: as §1, §2, §3, §4, §5, §6, §7, §8, §9
(In general: ADP-Glo first removes unused ATP, then detects ADP through luciferase.)

The target of data set [3] is T2, BDK (Homo sapiens, UniProt O14874).
T2 construct: endogenous in cells; host or cells: human lymphoblasts
The data set can be described thus: BDK inhibitory activity in cell culture (human lymphoblasts). Format: cell-based.

The nature of data set [4]: Plasma protein binding (mouse). The class given is in vitro ADME. The source says: (§10) Various pharmacokinetic parameters of exemplary compounds of the invention have been established in-vivo and are presented in Table 2 below.
Data set [5] in a line: Plasma protein binding (human). The class given is in vitro ADME.
Description: as §10

Data set [6] in a line: Pharmacokinetic parameters in-vivo (IV, IP, PO). The following applies: for AUC: read-out: Exposure (AUC); for bioavailability: read-out: Oral bioavailability (F); for Vd: read-out: Volume of distribution (Vd).
Description: as §10

Data set [7] has as its target T2, BDK. The data set can be described thus: Cell-based ELISA of BDK activity (E1α phosphorylation level) in WT and iMSUD patient derived lymphoblasts. The following applies: WT and mutant lymphoblasts derived from iMSUD patients. From the text:
Accordingly, the inventors performed cell studies in order to test the efficacy of the exemplary compounds of the invention on the BCKDH E1α subunit phosphorylation level, as it is BDK substrate in WT and iMSUD lymphoblasts and fibroblasts. Efficacy of the tested compounds RMO-1154 and RMO-800 in 2 MSUD lymphoblasts lines has been determined using cell-based ELISA to quantify BDK activity in treated cells as monitored by the phosphorylation level of BDK substrate, E1α. Healthy donor cells and BT2 (commercially available BDK inhibitor) have been used as positive controls.

Data set [8] concerns BCKA (KIV, KIC, KMV) plasma concentration. The data set can be described thus: In-vivo BCKA plasma concentration in WT mice by LC-MS. As to conditions: for reduction of BCKA (such as KIC and/or KMV) plasma concentrations: 3 single doses a day for 7 days, day 8, WT mice. The source says: An alternative assay for assessment of BCKDH activity comprises measuring of BCKAs blood (e.g. plasma) concentration within the subject. BCKAs (such as a-keto isovalerate (abbreviated as KIV), sodium a-keto isocaproate (abbreviated as KIC), sodium a-keto β-methylvalerate (abbreviated as KMV)) are downstream metabolites of BCAAs, and the substrates of BCKDH complex, and are considered to be reliable and sensitive biomarkers for BDK inhibition and BCKDH complex activity enhancement.
BCKA blood concentration of a subject can be determined by various analytical methods, such as by LC-MS.
The inventors performed an in-vivo study by administering an exemplary compound of the invention (RMO-1154) to 8-10 week-old […] WT mice (n=5). RMO-1154 has been administered (per os, 3 single doses a day every 8 hrs, for 7 days) at various single doses (10 mg/kg, 30 mg/kg, and 100 mg/kg). At day 8, KIV, KIC and KMV plasma concentration has been determined by LC-MS.

Where [9] appears, read: human lymphoblasts, read-out: IC50 lymphoblasts.

With `O=C(O)c1cc2cscc2s1`, in the data set on BDK (MBP-BDK) [1], the “BDK inhibitory activity in-vitro (in words)” value is recorded as “significant BDK inhibitory activity”.
On to `O=C(O)c1sc2cc(F)ccc2c1Cl` [BT2F], for which the “BCKDH activity (in words)” value in the data set on BCKDH was “increase of the BCKDH activity”.
As to `O=C(O)c1sc2cc(Cl)ccc2c1Cl` [BT2], in the data set with BCKDH, the “BCKDH activity (in words)” value is “increase of the BCKDH activity”.
As to `CC(=O)Nc1nonc1NC(=O)c1sc2cc(Cl)ccc2c1Cl` [BT3], the “BCKDH activity (in words)” value in the data set on BCKDH was “increase of the BCKDH activity”.
As to `O=C(O)c1cc2c(F)c(F)sc2s1` [RMO-800, 4,5-difluorothieno[2,3-b]thiophene-2-carboxylic acid], the pIC50 on BDK (MBP-BDK) [2] and on BDK [3] (setting [9]) was 7.00 each time. Besides, the unbound share (fraction unbound) is 0.012 in data set [4] and 0.008 in data set [5]. In addition, the AUC in data set [6] (ip, 3 mg/kg) was 14700 ng·h/mL; in [6] (iv, 1 mg/kg) it was 3580 ng·h/mL; in data set [6] (po, 3 mg/kg), 12700 ng·h/mL. For the same molecule, the bioavailability in data set [6] (ip, 3 mg/kg) was determined as 136%; in data set [6] (po, 3 mg/kg), 118%. Besides, the Vd in [6] (iv, 1 mg/kg) is 0.16 L/kg. The “BDK inhibitory activity (FIGS. 1A-1B, in words)” value on BDK [7] is “BDK inhibitory activity”.
Take `O=C(O)c1sc2sc(F)cc2c1F` [RMO-801, 2,4-difluorothieno[2,3-b]thiophene-5-carboxylic acid]: the pIC50 on BDK (MBP-BDK) [2] was 6.33; on BDK [3] (setting [9]), 6.77.
As for `O=C(O)c1cc2c(F)sc(F)c2s1` [RMO-1149, 4,6-difluorothieno[3,4-b]thiophene-2-carboxylic acid], the results for the pIC50 at BDK (MBP-BDK) [2] and at BDK [3] (setting [9]) were 6.10 and 6.42, respectively.
For `O=C(O)c1[se]c2cc(Cl)ccc2c1Cl` [RMO-1152, 3,6-dichlorobenzo[b]selenophene-2-carboxylic acid], the pIC50 against BDK [3] (lymphoblasts cells, unit inferred) is 4.87 to 5.54.
In the case of `O=C(O)c1sc2sccc2c1F` [RMO-1153, 4-fluorothieno[2,3-b]thiophene-5-carboxylic acid], the values for the pIC50 against BDK (MBP-BDK) [2] and on BDK [3] (setting [9]) were 6.31 and 6.54, respectively.
Regarding `O=C(O)c1cc2cc(F)sc2s1` [RMO-1153B, 5-fluorothieno[2,3-b]thiophene-2-carboxylic acid], at BDK (MBP-BDK) [2], the pIC50 was 6.21.
On to `O=C(O)c1sc2cscc2c1F` [RMO-1154, 3-fluorothieno[3,4-b]thiophene-2-carboxylic acid], for which the values for the negative logarithm of the IC50 (pIC50) against BDK (MBP-BDK) [2] and on BDK [3] (setting [9]) were 6.25 and 6.24, respectively. Further, the fraction unbound in data set [4] is 0.108; in data set [5], 0.015. For the same molecule, the AUC is 18000 ng·h/mL in data set [6] (ip, 3 mg/kg); 6130 ng·h/mL in data set [6] (iv, 1 mg/kg); 19400 ng·h/mL in data set [6] (po, 3 mg/kg). The bioavailability came out at 98% in data set [6] (ip, 3 mg/kg) and 104% in data set [6] (po, 3 mg/kg). Further, in data set [6] (iv, 1 mg/kg), the Vd amounted to 0.15 L/kg. Besides, the “BDK inhibitory activity (FIGS. 1A-1B, in words)” value at BDK [7] is on record as “BDK inhibitory activity”. For the same molecule, the figures for the “reduction of BCKA (such as KIC and/or KMV) plasma concentrations” value in [8] (10 mg/kg per os), in [8] (30 mg/kg per os) and in [8] (100 mg/kg per os) were “about 2 fold”, 8-10 fold and 10-12 fold, respectively. Moreover, in data set [8] (WT mice, day 8), the “in-vivo reduction of BCKA (KIV, KIC, KMV) concentration in plasma (FIG. 2, in words)” value was “dose dependent in-vivo reduction”.
